The text below walks through data of patent publication US20030068615A1, “Polypeptides that bind HIV gp120 and related nucleic acids, antibodies, compositions, and methods of use” (priority 1999, published 2003).

This test concerns the target HIV-1LAI envelope gp120 (Human immunodeficiency virus type 1 group M subtype B, UniProt P03377). The class given is binding. As to conditions: for number of radioactive decays (counts) counted: human CD4 21-mer scan, empty control 2075; for Counts per 20′ Average-background: CCR5 18-mer scan, radiolabeled HIV-1LAI gp120; for Binding Results For Window Length (counts bound-background), 9: 9-mer starting at the first residue of the printed sequence; for Binding Results For Window Length (counts bound-background), 12: 12-mer starting at the first residue of the printed sequence.

Setting [1] is: Panel C, 15-mers and 18-mers of CD4, empty control 556.
[2] abbreviates: CXCR4 18-mer scan, background subtracted, empty control 0.
Where [3] appears, read: CXCR4 18-mer scan, empty control 412.
[4] abbreviates: Panel D, 9-mers and 12-mers of CD4, empty control […].
The mark [5] stands for this setting: Panel B, 15-mers and 18-mers of CD4, empty control 575.
Setting [6] is: Panel E, 9-mers and 12-mers of CD4, empty control 571.
[7] abbreviates: Panel A, 21-mers of CD4, empty control 515 and 617.
[8] abbreviates: STRL33 18-mer scan, background subtracted, first of two count columns.
Where [9] appears, read: STRL33 18-mer scan, background subtracted, second of two count columns.
The mark [10] stands for this setting: STRL33 amino terminus, background subtracted.

Read-outs that look alike come from different tables or passages of the source.

For QKKVEFKIDIVVLAFQKA, the “COUNTS of radiolabeled gp120 retained” value under setting [1] amounted to 1013 counts.
Regarding “QKRKALKTTVILILAFFA [CXCR4 segment 233-250]”, the “radioactive counts recorded in twenty minutes” value (“radioactive counts recorded” for short) is, setting by setting: under setting [2], 283 counts; under setting [3], 695 counts.
Turning to QLLVFGLTA, under setting [4], the “COUNTS of radiolabeled gp120 retained” value amounted to 822 counts.
Still for that read-out and setting: the value for QLLVFGLTANSD was 721 counts.
Take QLLVFGLTANSDTHL: under setting [5], the “COUNTS of radiolabeled gp120 retained” value was determined as 865 counts.
Still for that read-out and setting: next, QLLVFGLTANSDTHLLQG: 574 counts.
Regarding “QLQKNLTCEVWGPTSPKLMLS [human CD4 321-341]”, the “number of radioactive decays (counts) counted” value (from here on “number of radioactive decays”) is 1856 counts.
For the sequence QNQKKVEFK, the “COUNTS of radiolabeled gp120 retained” value under setting [6] is listed as 537 counts.
The same measure, in the same setting: next, QNQKKVEFKIDI: 559 counts.
Regarding QNQKKVEFKIDIVVL, the “COUNTS of radiolabeled gp120 retained” value under setting [1] was 636 counts.
Same read-out and setting: next, QNQKKVEFKIDIVVLAFQ: 917 counts.
QRPRKLLAEKVVYVGVWI: the “radioactive counts recorded” value is, setting by setting: under setting [2], 127 counts; under setting [3], 539 counts.
Consider QVEFSFPLA, for which the “COUNTS of radiolabeled gp120 retained” value under setting [6] amounted to 1205 counts.
Still for that read-out and setting: next, QVEFSFPLAFTV: 1636 counts.
For QVEFSFPLAFTVEKL, the “COUNTS of radiolabeled gp120 retained” value under setting [1] was found to be 2047 counts.
For QVEFSFPLAFTVEKLTGS, the “COUNTS of radiolabeled gp120 retained” value under setting [1] turned out to be 736 counts.
QVEFSFPLAFTVEKLTGSGEL: the “COUNTS of radiolabeled gp120 retained” value under setting [7] worked out at 741 counts.
On to QVEFSFPLLA, for which the “Gp120 Bound (counts)” value (active CD4 fragments: 9-, 12-, 15-, 18- and 21-mers, background not subtracted) is given as 1205 counts.
Regarding QWDFGNTMCQLLTGLYFI [CCR5 segment 93-], the “Counts per 20′ Average-background” value (background subtracted) is recorded as 1019 counts per 20′.
For QWKSSEDNSKTFSASHNV, the “radioactive counts recorded” value worked out at 464.5 counts under setting [8] and 533.5 counts under setting [9].
As for “RCRHRRRQAERMSQIKRLLSE [human CD4 421-441]”, the “number of radioactive decays” value was found to be 2075 counts.
Take “RLHLSVADLLFVITLPFW [CXCR4 segment 77-94]”: the “radioactive counts recorded” value was found to be 136 counts under setting [2] and 548 counts under setting [3].
Take RMSQIKRLLSEKKTCQCPHRF: the “number of radioactive decays” value is given as 2020 counts.
Take RNEKKRHRAVRLIFTIMI [CCR5 segment 225-]: the “Counts per 20′ Average-background” value (background subtracted) came out at 23 counts per 20′.
On the same count and under the same terms, the value for RNYLLVFFQKHIAKRFCK was 65 counts per 20′.
Consider “RRQAERMSQLKRLLSEKKTCQ [human CD4, printed 42E-446]”, for which the “number of radioactive decays” value was found to be 1607 counts.
As for SCYCIIISKLSHSKGHQK, the “radioactive counts recorded” value amounted to 259 counts under setting [2] and 671 counts under setting [3].
The like results for SDNYTEEMGSGDYDSMKE [CXCR4 segment 9-26] were, in that order, 43 counts and 455 counts.
SDTHLLQGQ: the “COUNTS of radiolabeled gp120 retained” value under setting [4] is recorded as 526 counts.
Still for that read-out and setting: the value for SDTHLLQGQSLT was 540 counts.
With SDTHLLQGQSLTLTL, under setting [5], the “COUNTS of radiolabeled gp120 retained” value is 747 counts.
Still for that read-out and setting: the value for SDTHLLQGQSLTLTLESP was 1260 counts.
For the sequence SDTYICEVE, the “COUNTS of radiolabeled gp120 retained” value under setting [4] is 819 counts.
On the same count and under the same terms, the value for SDTYICEVEDQK was 846 counts.
For the sequence SDTYICEVEDQKEEV, the “COUNTS of radiolabeled gp120 retained” value under setting [5] came to 993 counts.
Still for that read-out and setting: next, SDTYICEVEDQKEEVQLL: 870 counts.
As for “SEDNSKTFSASHNVEATS [STRL33 segment 321-338]”, the “radioactive counts recorded” value under setting [8] came to 524.5 counts.
For SEPCQKINVKQIAARLLP [CCR5 segment 17-34], the “Counts per 20′ Average-background” value (background subtracted) is reported as −44 counts per 20′.
For the sequence “SFHYTIMVTEAIAYLRAC [STRL33 segment 265-282]”, the “radioactive counts recorded” value under setting [8] stood at 761.5 counts and the “radioactive counts recorded” value under setting [9] came out at 1033.5 counts.
With SFPLAFTVE, the “COUNTS of radiolabeled gp120 retained” value under setting [6] turned out to be 619 counts.
Turning to SFPLAFTVEKLT, the “COUNTS of radiolabeled gp120 retained” value under setting [6] stood at 528 counts.
For SFPLAFTVEKLTGSG, the “COUNTS of radiolabeled gp120 retained” value under setting [1] worked out at 565 counts.
For the sequence SFPLAFTVEKLTGSGELW, the “COUNTS of radiolabeled gp120 retained” value under setting [1] is given as 656 counts.
As for SFPLAFTVEKLTGSGELWWQA, the “COUNTS of radiolabeled gp120 retained” value under setting [7] was determined as 2284 counts.
In the case of SFWDSSQEEEQAFLQFSK, under setting [10], the “Binding Results For Window Length (counts bound-background), 9” value is given as 304 counts and the “Binding Results For Window Length (counts bound-background), 12” value is 303 counts. Also, the “Binding Results For Window Length (counts bound-background), 15” value (STRL33 amino terminus, 15-mer starting at the first residue of the printed sequence, background subtracted) was 969 counts. The “Binding Results For Window Length (counts bound-background), 18” value (STRL33 amino terminus, 18-mer starting at the first residue of the printed sequence, background subtracted) is 4537 counts.
Take SIFQQEAPERASSVYTRS [CCR5 segment 325-]: for the setting “background subtracted”, the “Counts per 20′ Average-background” value is on record as 100 counts per 20′.
In the case of “SITEALAFFHCCLNPILY [CXCR4 segment 285-302]”, the “radioactive counts recorded” value came to 188 counts under setting [2] and 600 counts under setting [3].
For the sequence SIVYKKEGE, the “COUNTS of radiolabeled gp120 retained” value under setting [6] was determined as 566 counts.
Still for that read-out and setting: the value for SIVYKKEGEQVE was 543 counts.
As to SIVYKKEGEQVEFSF, the “COUNTS of radiolabeled gp120 retained” value under setting [1] is 651 counts.
On the same count and under the same terms, next, SIVYKKEGEQVEFSFPLA: 771 counts.
Consider SIVYKKEGEQVEFSFPLAFTV, for which the “COUNTS of radiolabeled gp120 retained” value under setting [7] was 8165 counts.
Turning to SIYTSDNYTEEMGSGDYD [CXCR4 segment 5-22], the “radioactive counts recorded” value reads like this: under setting [2], 71 counts; under setting [3], 483 counts.
The matching figures for “SKGHQKRKALKTTVILIL [CXCR4 segment 229-246]”: 140 counts and 552 counts.
Take “SKTFSASHNVEATSMFQL [STRL33 segment 325-342]”: the “radioactive counts recorded” value is, setting by setting: under setting [8], 1524.5 counts; under setting [9], 1239.5 counts.
The like results for “SLKIIFLVMAVFLLTQMP [STRL33 segment 229-246]” were, in that order, 612.5 counts and 853.5 counts.
Turning to “SLKILSKGKRGGHSSVST [CXCR4 segment 325-342]”, the “radioactive counts recorded” value runs as follows: under setting [2], 285 counts; under setting [3], 697 counts.
“SLKLENKEAKVSKREKAVWVL [human CD4 341-361]”: the “number of radioactive decays” value was 1663 counts.
For SQEEHQAFLQFS, under setting [10], the “Binding Results For Window Length (counts bound-background), 9” value came to 647 counts and the “Binding Results For Window Length (counts bound-background), 12” value was found to be 7512 counts.
For SQKEGLHYTCSSHFPYSQ [CCR5 segment 169-], the “Counts per 20′ Average-background” value (background subtracted) stood at 304 counts per 20′.
The same measure, in the same setting: the value for SQYQFWKNFQTLKIVILG [CCR5 segment 185-] was 1572 counts per 20′.
Consider “SRGSSLKILSKGKRGGHS [CXCR4 segment 321-338]”, for which the “radioactive counts recorded” value is 169 counts under setting [2] and 581 counts under setting [3].
